# Patent publication US9657013B2, “Inhibitors of hepatitis B virus covalently closed circular DNA formation and their method of use” (priority 2012, dated 2017)
# Columns and labels:
# HBV DP-rcDNA = assay: DP-rcDNA level in HepDES19 cells (Southern blot); format: cell-based, hepatitis B virus; details: for reduction of DP-rcDNA: early time point
# Text: Viral nucleic acid analysis: Total cellular RNA was extracted with TRIzol reagent (Invitrogen, Grand Island, N.Y.) by following manufacturer's directions. Ten microgram of total cellular RNA was resolved in 1.5% agarose gel containing 2.2 M formaldehyde and transferred onto Hybond-XL membrane (GE Healthcare, Piscataway, N.J.) in 20×SSC buffer. Intracellular hepadnaviral core DNA and cccDNA (Hirt DNA) were extracted as described previously (Guo, H., D. Jiang, T. Zhou, A. Cuconati, T. M. Block, and J. T. Guo. 2007. Guo, H., D. Jiang, T. Zhou, A. Cuconati, T. M. Block, and J. T. Guo. 2007. Guo, H., R. Mao, T. M. Block, and J. T. Guo. 2010. Guo, H., W. S. Mason, C. E. Aldrich, J. R. Saputelli, D. S. Miller, A. R. Jilbert, and J. E. Newbold. 2005). Half of the DNA samples recovered from one well of a 6-well-plate were resolved by electrophoresis into a 1.2% agarose gel and blotted onto Hybond-XL membrane. Membranes were probed with either an α-^32P-UTP (800 Ci/mmol, Perkin Elmer) labeled hepadnaviral minus (detecting DNA) or plus strand (detecting RNA) specific full-length riboprobe and exposed to a phosphorimager screen (Fuji Film, Tokyo, Japan). Hybridization signals were visualized by Typhoon FLA-7000 (GE Healthcare) and quantified with ImageQuantTL software (GE Healthcare).
# Identification of compounds that inhibits cccDNA accumulation in HepDES19 cells: Compounds were tested on HepDES19 cells, which have a higher level of cccDNA production than HepDE19 cells (Guo, H., D. Jiang, T. Zhou, A. Cuconati, T. M. Block, and J. T. Guo. 2007). Briefly, after withdrawal of tetracycline, HepDES19 cells were left untreated, or were treated with compound at serial concentrations; tetracycline-free media was changed every other day with fresh compound supplementation. […] The cells were harvested at day 12, viral RNA (top panel), core DNA (middle panel), and Hirt DNA (DP-rcDNA and cccDNA) (bottom panels) were extracted and analyzed by Northern blot and Southern blot, respectively. Shorter exposure of the Hirt DNA blot was used for the quantitative determination of DP-rcDNA signals. […]
# HBV polymerase = biological target: T1, HBV polymerase (Hepatitis B virus genotype D subtype ayw, UniProt P03156); assay: endogenous DNA polymerase reaction (EPR); format: biochemical; details: for HBV polymerase activity: in vitro endogenous polymerase reaction, HBV virions from HepDE19 culture fluid
# T1 construct: HBV virion stock (˜5×10^7 genome equivalents) concentrated from the supernatant of HepDE19 cells cultured in tetracycline-free medium; expressed in transfected cells; host or cells: HepDE19 cells (HBV-producing line, tetracycline-off); virions concentrated from the supernatant
# T1 sequence (P03156 whole entry): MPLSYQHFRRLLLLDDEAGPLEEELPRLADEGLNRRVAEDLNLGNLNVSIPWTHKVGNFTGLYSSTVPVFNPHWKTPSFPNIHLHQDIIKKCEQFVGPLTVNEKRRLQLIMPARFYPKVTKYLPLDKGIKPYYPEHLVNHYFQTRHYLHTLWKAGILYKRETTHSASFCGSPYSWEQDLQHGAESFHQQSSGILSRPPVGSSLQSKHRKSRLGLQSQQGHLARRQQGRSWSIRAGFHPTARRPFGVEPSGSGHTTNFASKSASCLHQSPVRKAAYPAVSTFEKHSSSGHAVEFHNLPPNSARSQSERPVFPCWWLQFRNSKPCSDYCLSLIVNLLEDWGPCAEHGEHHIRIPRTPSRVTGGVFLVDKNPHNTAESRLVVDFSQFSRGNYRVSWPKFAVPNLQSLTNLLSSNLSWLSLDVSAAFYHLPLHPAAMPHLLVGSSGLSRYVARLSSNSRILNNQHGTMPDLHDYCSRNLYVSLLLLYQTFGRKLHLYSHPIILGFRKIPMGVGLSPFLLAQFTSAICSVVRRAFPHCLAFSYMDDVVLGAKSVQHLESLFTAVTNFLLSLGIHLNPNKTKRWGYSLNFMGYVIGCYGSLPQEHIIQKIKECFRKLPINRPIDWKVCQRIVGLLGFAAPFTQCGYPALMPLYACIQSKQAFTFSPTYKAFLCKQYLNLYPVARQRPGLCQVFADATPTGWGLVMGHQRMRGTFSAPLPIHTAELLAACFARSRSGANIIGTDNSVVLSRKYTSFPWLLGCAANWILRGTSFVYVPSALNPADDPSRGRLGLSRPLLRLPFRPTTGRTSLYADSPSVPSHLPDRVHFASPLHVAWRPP
# Protocol: Endogenous DNA polymerase reaction (EPR): The EPR was performed as previously described with modifications (Guo, H., R. Mao, T. M. Block, and J. T. Guo. 2010). Briefly, EPR mixture was assembled with 10 μl of HBV virion stock (˜5×10^7 genome equivalents) concentrated from the supernatant of HepDE19 cells cultured in tetracycline-free medium (Guo, H., D. Jiang, T. Zhou, A. Cuconati, T. M. Block, and J. T. Guo. 2007, plus 15 μl of 2×EPR buffer which consisted of 0.3 M NaCl, 0.1 M Tris-HCl (pH 8.0), 20 mM MgCl2, 2 mM dithiothreitol, 0.2% (vol/vol) Nonidet P-40, 0.2 mM each of dATP/dGTP/dTTP, and 10 μM α-^32P-dCTP. Compounds were added as indicated and water was supplemented to bring the reaction volume to 30 μl. As a positive control, 0.2 mM of dGTP in the 2×EPR buffer was replaced with 0.2 mM ddGTP. After incubation at 37° C. for 1 hours, the reaction solution was dotted on Whatman 3M filter (Millipore, Billerica, Mass.) and subjected to rinse with 10% trichloride acid for 30 min at room temperature, followed by 3 times of wash with 95% ethanol, 5 min each. The radioactivity (counts of per minute, CPM) of acid insoluble ^32P was counted with a liquid scintillation counter (PerkinElmer, Waltham, Mass.).
# [1] = cytotoxicity assay (MTT, CC50); format: cell-based; details: human, HepDE19 cells
# Protocol: (§1) Cell plates were then incubated with compound dilutions and controls as described above, and addition of 3-[4,5-dimethylthiazol-2-yl]-2,5-diphenyltetrazolium bromide (MTT, Sigma-Aldrich) was added to a final concentration of 0.5 mg/ml (Mosmann, T. 1983). Plates were again incubated at 37° C. for 4 hrs, after which 10% SDS/0.01N HCl was added to each well in a volume equal to the medium (100 μl), followed by overnight incubation. Absorbance was read in the Rainbow spectrophotometer (Tecan US Inc., Durham, N.C.) at 570 nm (reference wavelength of 630 nm), and analyzed with XLfit 4.0 as described above.
# HepDE19 cells = assay: cytotoxicity assay (MTT, CC50); format: cell-based
# Protocol: as §1
Compound,reduction of DP-rcDNA (HBV DP-rcDNA),"viral polymerase activity (HBV polymerase; endogenous polymerase reaction, compound at 3 μM)",HBV polymerase activity (HBV polymerase),CC50 [1] [µM],"reduction of putative cccDNA precursor DP-rcDNA (HBV DP-rcDNA; HepDES19 cells, day 12)",HBV polymerase activity (HBV polymerase; listed as 2-[Benzenesulfonyl-(2-chloro-5-trifluoromethyl-phenyl)-amino]-N-pyridin-4-ylmeth),HBV polymerase activity (HBV polymerase; listed as 2-[benzenesulfonyl-(2-chloro-5-trifluoromethyl-phenyl)-amino]-N-pyridin-4-ylmeth),CC50 (HepDE19 cells) [µM]
"Cc1nc2cc(NC(=O)c3ccc(S(=O)(=O)N(C)Cc4ccccc4)cc3)ccc2s1 [CCC-0346, 4-(Benzyl-methyl-sulfamoyl)-N-(2-methyl-benzothiazol-5-yl)-benzamide]",significant reduction,does not inhibit,did not inhibit,3,,,,
"O=C(CN(c1cc(C(F)(F)F)ccc1Cl)S(=O)(=O)c1ccccc1)NCc1ccncc1 [CCC-0975, 2-[Benzenesulfonyl-(2-chloro-5-trifluoromethyl-phenyl)-amino]-N-pyridin-4-ylmethyl-acetamide]",significant reduction,,,,significant reduction,does not inhibit,did not inhibit,> 50
